Source: BindingDB's records for doi:10.7270/Q2125R3Z (Burnham Center For Chemical Genomics, 2010)

Target: Delta-type opioid receptor (Homo sapiens, UniProt P41143)
Experiment: DOR agonists, SAR follow-up, image-based (AID 2370)

Sequence of Delta-type opioid receptor (P41143 whole entry): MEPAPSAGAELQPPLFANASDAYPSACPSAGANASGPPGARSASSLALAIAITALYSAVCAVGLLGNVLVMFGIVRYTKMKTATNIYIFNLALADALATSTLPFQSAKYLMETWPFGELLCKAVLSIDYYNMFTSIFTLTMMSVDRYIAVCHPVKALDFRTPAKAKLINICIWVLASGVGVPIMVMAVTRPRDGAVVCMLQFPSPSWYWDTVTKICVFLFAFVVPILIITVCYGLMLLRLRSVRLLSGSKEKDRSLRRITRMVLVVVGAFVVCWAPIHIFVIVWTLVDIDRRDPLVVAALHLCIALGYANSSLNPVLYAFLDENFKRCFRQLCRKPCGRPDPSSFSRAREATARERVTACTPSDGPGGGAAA

EC50	Structure (SMILES)
30.7 µM	CCC(N=Nc1ccnc2cc(Cl)ccc12)c1ccc(O)cc1 (configuration not stated) [4-[1-[2-(7-chloroquinolin-4-yl)hydrazinyl]propylidene]cyclohexa-2,5-dien-1-one]
> 32 µM	Oc1ccc(CN=Nc2ccnc3cc(Cl)ccc23)cc1O [(4Z)-4-[[2-(7-chloroquinolin-4-yl)hydrazinyl]methylidene]-2-hydroxycyclohexa-2,5-dien-1-one]
